The values below come from patent US20210260106A1, “CHLORITE-CONTAINING COMPOSITIONS” (ClearCrescent Technologies, LLC, priority 2008, published 2021).

≈ marks a conversion by molar mass, not a printed value. Like-named read-outs stand apart in the source and are kept apart here.

Series [1] is described as follows: Topical treatment of psoriasis, divided elbow, one subject. It counts as in vivo, human. The note with it: for Result after 3 days treated twice daily: elbow section. The source says:
Background: A subject suffered from Psoriasis diagnosed […]. They have not undergone treatment for their condition since 1996. They report rash after bathing that turns to white plaques with scaling within days. Treatment 1: […] They then distributed the combination to the entire affected right lateral section of their elbow. Treatment 2: […] They then distributed the combination to the entire affected outside lateral section. Treatment 3: […] They then distributed the combination to the entire affected interior lateral section.

Another series deals with human cells. The note with it: Ingram et al 2004; cited from earlier work.
Series [2] relates to Trichophyton rubrum ATCC MYA 4438. Kind of series: MIC study in broth culture, sodium chlorite and itraconazole. It counts as cell-based. The note with it: for MIC: Trichophyton rubrum, read-out: amount of Itraconazole required to inhibit the fungus (MIC). The procedure:
As shown in the examples, in vitro data was generated and the minimum inhibitory concentrations (MIC) tests were determined in broth culture using ATCC MYA 4438. Itraconazole is the azole used in the study. […] On the X-axis are dilutions of itraconazole. Fungal Growth is noted by a + and lack of growth by a −.
Referring to FIG. 18, the experiments were repeated with the strain Trichophyton rubrum.

Series [3] concerns Trichophyton mentagrophytes ATCC MYA 4439. Described as above. The note with it: for MIC: Trichophyton mentagrophytes, read-out: amount of Itraconazole required to inhibit the fungus (MIC). It counts as cell-based.
The format of series [4] is in vivo, human. An excerpt: Compositions were topically applied to various skin and nail conditions. […] The solution was applied by dropper to affected areas, or combined with a bioactive agent and then applied to the affected area or applied sequentially to the affected area at least once daily, preferably twice daily during treatment period. […] Background: A subject was diagnosed with Dyshidrosis in March of 2012. Symptoms included small blisters on the palms of their hands and the underside of their fingers with scaling. […] They abandoned the treatment. Symptoms continued. They occasionally self-treated the condition with over the counter Lamisil. […] Treatment: […]

A short description of a further series: Treatment of dog wound. The note with it: rear leg. It counts as in vivo. An excerpt: Dog was occasionally limping and favoring his rear leg. A 2-inch diameter area of raw red moist skin was observed where hair had fallen out. Upon close inspection a 1,½ inch suppurating cut was observed which created a dark line leading to a 1 cm×2 cm section of blackened skin. Dog had been topically treated with Triamcinolone Acetonide and bandaged previously to no effect.
The ratio was 1:1. At the second and third interval Neosporin™ was mixed in hand with other compositions in a 1:1:1 ratio. Dog was not observed to lick wound.

In series [5] the test system is onychomycosis; fungal infections of the skin and nails. Kind of series: Azole antifungals tested on fungal infections of skin and nails. Conditions: in vivo. Also noted: species or system human.
A short description of series [6]: Topical treatment of psoriasis on chin and face. The note with it: three days twice daily. It counts as in vivo, human.
Protocol: Patient was treated on the chin for three days twice daily. On their right side of the chin, sodium chlorite solution was applied alone.
They applied SC combined with CCT's herbal treatment to their right side of their chin. SC+ a composition containing 3.66 g thymol, 3.66 g menthol, 3.66 g menthyl acetate in 100 ml grapeseed oil with 0.25 ounce beeswax.
Another series has as its system Candida albicans. Conditions: at 0.5%.
Series [7] relates to dermataphytes that cause tinea pedis and onychomycosis.

Protocol for Candidia albicans: An in vitro determination of the use of sodium chlorite on human tissue culture and broth culture of Candidia albicans was performed.

As to `Clc1ccccc1C(c1ccccc1)(c1ccccc1)n1ccnc1` [1% Clotrimazole cream, Clotrimazole], the “psoriasis symptoms two days later” value in series [1] (Treatment 3, elbow section) was “White dry scales were not perceived and the rash was less apparent”. In addition, in series [1], the “Result after 3 days treated twice daily” value is “plaques are not present”.
On to chlorite ions, for which the “concentration shown to be non-toxic to human cells” value with human cells is recorded as 100 ppm.
With `CCC(C)n1ncn(-c2ccc(N3CCN(c4ccc(OCC5COC(Cn6cncn6)(c6ccc(Cl)cc6Cl)O5)cc4)CC3)cc2)c1=O` (stereo not shown) [Itraconazole, itraconazole], the minimum inhibitory concentration (MIC) – broadly, the least concentration at which growth counts as inhibited – is less than 0.03 µg/mL in series [2] (combined with sodium chlorite), 0.06 µg/mL (≈ 0.085 µM) in series [2] (itraconazole alone), less than 0.03 µg/mL in series [3] (combined with sodium chlorite) and 0.125 µg/mL (≈ 0.177 µM) in [3] (itraconazole alone). In addition, the “decrease of itraconazole MIC” value in series [2] (combined with sodium chlorite) is “at least 2 fold”; in series [3] (combined with sodium chlorite), “at least 4 fold”.
For the compound `CN(C/C=C/C#CC(C)(C)C)Cc1cccc2ccccc12` [Lamisil], in series [4] (human, in vivo), the “local tolerance of earlier treatment” value is listed as “stinging”. In addition, the “result of earlier treatment of the subject's Dyshidrosis” value in [4] (subject's history before the study) is “no significant amelioration of symptoms”.
Take `CC1(C)O[C@@H]2C[C@H]3[C@@H]4CCC5=CC(=O)C=C[C@]5(C)[C@@]4(F)[C@@H](O)C[C@]3(C)[C@]2(C(=O)CO)O1` [Triamcinolone Acetonide]: the wound outcome in “Treatment of dog wound” is given as “no effect”.
For the compound `N#C/C(=C1/SC[C@@H](c2ccc(Cl)cc2Cl)S1)n1ccnc1` [1% Luliconazole cream, luliconazole], the “psoriasis symptoms one day later” value in [1] (Treatment 2, elbow section) is recorded as “White dry scales were perceived though the rash was less apparent”. For the same compound, the “Result after 3 days treated twice daily” value in series [1] was “Red Rash and scaling”; in [1] (listed as Luliconazole), “red rash and plaques were present”.
For `CC(=O)N1CCN(c2ccc(OCC3COC(Cn4ccnc4)(c4ccc(Cl)cc4Cl)O3)cc2)CC1` (stereo not shown) [Ketaconazole], the “effectiveness against fungal infection of nails/skin” value in series [5] is recorded as “excellent results”.
For `C=C1CCN([C@H](C)[C@](O)(Cn2cncn2)c2ccc(F)cc2F)CC1` [10% efinaconazole, efinaconazole], the “Result after 3 days treated twice daily” value in series [1] is “Rash and white scaling”; in series [1] (listed as efinaconazole) it was “white dry scales and evidence of rash”.
Take sodium chlorite: the Candidia albicans killing result in the series with Candidia albicans (0.5% sodium chlorite in culture broth) was “effective in killing”; in the series with Candidia albicans (0.5% sodium chlorite in culture broth, listed as Sodium Chlorite), “Yes”; with Candidia albicans (2.0% sodium chlorite in culture broth) it was “effective in killing”; in the series with Candidia albicans (2.0% sodium chlorite in culture broth, listed as Sodium Chlorite), “Yes”. In addition, the “toxicity against Candidas albicans” value with Candidia albicans (at 0.5%) was 100%. The “regrowth of Candidia albicans” value in the series on Candidia albicans (continued culture without sodium chlorite) was “did not result in regrowth”. The “side by side comparison with standard antifungal agent in vitro” value in the series on Candidia albicans (versus fluconazole) is reported as “significantly superior results compared to fluconazole”. Further, the “recurrence of psoriasis symptoms in treated area of chin, 92 days later” value in series [6] is listed as “no recurrence of psoriasis symptoms”. Moreover, the “effect on Candida albicans on agar plates” value in the series on Candida albicans is on record as “kills Candida albicans rather than simply inhibiting its growth”. Moreover, the figures for the “drop of sodium chlorite's MIC” value in series [2] (combined with itraconazole) and in series [3] (combined with itraconazole) were “eight-fold” and “two-fold”, respectively. Further, the “effective concentration when combined with azole antifungals” value in series [7] (combined with antifungals in the azole group) was not below 0.015%. Also, the “effective concentrations alone against dermataphytes” value in series [7] (sodium chlorite alone, broth culture and in vivo) is listed as 0.25-4%.
